Data as given in patent publication US20100183592A1, “HUMAN EPO RECEPTOR AGONISTS, COMPOSITIONS, METHODS AND USES FOR PREVENTING OR TREATING GLUCOSE INTOLERANCE RELATED CONDITIONS” (priority 2006, published 2010).
Where no end group is shown, it is not given here.

Columns and labels:
[1] = test system: patients with baseline HbA1C 6.0 or higher; assay: datamining of clinical data (GE Clinical Data Services EMR database), patients prescribed EPO; type: in vivo, human; settings: for magnitude of HbA1C decline: first 3 months after EPO; for fasting blood glucose after EPO: end of time course
Description: GE Healthcare's Clinical Data Services database contains de-identified, normalized, longitudinal, patient-level Electronic Medical Record data from nearly to 4,000 US based physicians practicing in ambulatory setting who use GE Centricity EMR system. This database contains data on >4.7M patient lives. Average follow up time is approximately 3 years. The database contains information on Patient demographics, medical history, visit type, clinical observations (including Diagnosis codes), laboratory test results and medications prescribed. JNJ has purchased a license to this dataset and mined it to look for outcomes on diabetic parameters in patients who were prescribed EPO for anemia.
Population was further filtered to identify patients with Pre-EPO measurements followed by post-EPO measurements on the following variables of interest • Blood glucose, fasting • Hemoglobin A1c as % of total hemoglobin • Hemoglobin, blood • Hematocrit, blood
Patients with at least 1 pre- (up to 60 days prior) and 1 post- (up to 6 months after) EPO treatment measurements were considered for analysis. Number of patients meeting this criterion varied in numbers for different variables and time zones. Patients who were on EPO medication and also had mean HbA1c value of 6.0 or higher were considered as diabetic.

[2] = test system: patients with end-stage renal disease; settings: cited from earlier work
[3] = test system: DIO mice; assay: hematology (hemoglobin, reticulocytes) in DIO mice; type: in vivo; settings: DIO mice, 0.03, 0.1, 0.3 mg/kg i.v., five days after dosing
Procedure: (§1) The experiment described in Example 1 was repeated in DIO (diet induced obese) mice following dosing of CNTO 530 (0.3 mg/kg). This murine model is believed to be more representative of the human disease since the mice become diabetic after being fed a high fat diet (Purina TestDiet #58126 consisting of 60.9% kcal fat and 20.8% kcal carbohydrates). As described in Example 1, an IPGTT was done on the day of dosing and seven days after dosing. The time points during the IPGTT were 15, 30, 60, 90, 120, 150, and 180 minutes after glucose challenge. After the IPGTT was completed on day 7, the mice were sacrificed and whole blood (in EDTA) was collected via cardiac puncture for hematology studies.
(§2) Mice (DIO; n=7) were fasted overnight and fasting blood glucose (FBG) was measured. The animals were randomized based upon FBG. The mice were dosed intravenously with CNTO 530 (0.3 mg/kg) and given glucose intraperitonealy (0.5 mg/g) ten minutes later. Blood glucose was measured at various times (10, 20, 30, 60, 90, 120, 150, 180 minutes after glucose). The IPGTTs were repeated 7, 14, 21, 28, and 35 days after that initial single dose. […]
(§3) Mice (DIO; n=7) were fasted overnight and fasting blood glucose (FBG) was measured. […]
as §3

[4] = test system: DIO mice; assay: fasting blood glucose in DIO mice; type: in vivo; settings: DIO mice, 0.03, 0.1, 0.3 mg/kg i.v., 5 days after dosing
Procedure: (§4) Mice (DIO; n=7) were fasted overnight and fasting blood glucose (FBG) was measured. The animals were randomized based upon FBG and dosed intravenously with EPO (0.03, 0.1, 0.3 mg/kg). An IPGTT (as described above) was done 5 days after dosing. The animals were sacrificed after the IPGTT and whole blood was collected for hematology measurements.
as §4, with “darbepoetin (0.01, 0.03, 0.1” for “EPO (0.03, 0.1, 0.3”, “7” for “5”

[5] = cited from earlier work
[6] = test system: DIO mice; assay: IPGTT in DIO (diet induced obese) mice; type: in vivo; settings: 5 days after dosing
Procedure: as §1, §2, §3, §3

[7] = serum concentrations by ELISA, half-life in normal mice; type: in vivo
Procedure: (§5) In vivo studies were done in normal mice to compare the half-life of EMP-Hinge core mimetibody to that of rHuEPO and to compare their effects on erythropoiesis.
The serum concentrations of both rHuEPO and EMP-Hinge core mimetibody were measured by ELISA.

[8] = test system: cells that express the EPO receptor; assay: complement lysis of cells that express the EPO receptor; type: cell-based; settings: preliminary studies
Description: It has been shown that mutation of two […] (L) residues, L234 & L235, in the IgG1 lower hinge region to alanine (A) will abrogate the ability of the immunoglobulin to mediate complement dependent cytotoxicity (CDC) and antibody dependant cellular cytotoxicity (ADCC) (Hezereh et al., 2001, J. Virol., vol. 75 (24), 12161-68). […] This may be due to the low number of receptors that are found on erythroid progenitor cells. In addition the in vivo expansion of erythroid progenitors as evidenced by significant increases in hematocrit supports the possible functional irrelevance of immune effector functions. However, while no effector function associated affects have been observed, there remains an interest in introducing these mutations as a precautionary step.

[9] = test system: normal mice; assay: effects on erythropoiesis (hematocrit) in normal mice; type: in vivo; settings: dosed equally / equal activity units
Description: as §5

[10] = test system: EPO dependent UT-7/EPO cell line; assay: in vitro bioactivity assay: viability of rHuEPO-starved UT-7/EPO cells (MTS); type: cell-based, human; settings: for activity compared with rHuEPO: in vitro cell proliferation assay
Procedure: The activity of EMP-Hinge core mimetibody was first tested in an in vitro bioactivity assay. For this assay, the EPO dependent UT-7/EPO cell line, derived from a patient with acute megakaryoblastic leukemia, was used (Komatsu et al., 1993, Blood, vol. 82 (2), 456-464). These cells undergo programmed cell death 48 to 72 hours after withdraw from media supplemented with rHuEPO. Cells that have been incubated in the absence of rHuEPO for 24 hours can be saved if treated with rHuEPO or an EPOR agonist. EMP-Hinge core mimetibody was added to cells starved without rHuEPO and cell viability was determined 48 hours after treatment using the tetrazolium compound MTS (CellTiter 96 Aqueous One Solution, Promega) that is metabolized by living cells to yield a product with an absorbance that can be measured. […] In addition, these same cells were stimulated with EMP-Hinge core mimetibody and tyrosine phosphorylation patterns visualized by running cell lysate through a polyacrylamide gel.

[11] = in vivo; cited from earlier work
[12] = target: T1, EPO receptor (Homo sapiens, UniProt P19235); assay: competition with 125I-labeled EPO for binding to the EPO receptor
T1 sequence (P19235 25-508): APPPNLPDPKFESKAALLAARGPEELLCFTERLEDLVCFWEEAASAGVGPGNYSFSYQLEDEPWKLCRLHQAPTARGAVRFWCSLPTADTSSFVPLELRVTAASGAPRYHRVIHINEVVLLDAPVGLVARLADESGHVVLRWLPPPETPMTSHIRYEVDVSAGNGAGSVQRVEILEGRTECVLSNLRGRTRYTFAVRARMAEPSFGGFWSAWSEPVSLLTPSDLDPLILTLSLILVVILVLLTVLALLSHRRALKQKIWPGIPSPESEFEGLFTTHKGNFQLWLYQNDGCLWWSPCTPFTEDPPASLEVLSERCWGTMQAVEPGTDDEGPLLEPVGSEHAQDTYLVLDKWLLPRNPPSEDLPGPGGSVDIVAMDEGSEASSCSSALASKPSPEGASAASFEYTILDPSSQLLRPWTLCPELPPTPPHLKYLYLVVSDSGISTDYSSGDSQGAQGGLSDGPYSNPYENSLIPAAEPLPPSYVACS

[13] = 50% serum; cited from earlier work
[14] = baseline HbA1C 7%-8% (7.38%), first month
[15] = baseline HbA1C 8%-9% (8.35%), first month
[16] = baseline HbA1C >9% (10.18), first month
[17] = longitudinal patients, baseline under 126 mg/dL (102 mg/dL)
[18] = listed as EMP-hinge core mimetibody
[19] = UT-7/EPO cells, viability 48 hours after treatment

EPO: glycoprotein hormone of 165 amino acids and four carbohydrate chains, primary regulator of erythropoiesis
decline in HbA1C level ([1]; baseline HbA1C 6.0%-7.0%): no decline | HbA1C level after EPO [1, 14]: 6.99% | decline in HbA1C level [1, 14]: 0.39% | HbA1C level after EPO [1, 15]: 7.51% | decline in HbA1C level [1, 15]: 0.84% | HbA1C level after EPO [1, 16]: 8.49% | decline in HbA1C level [1, 16]: approximately 1.69% | HbA1C level after EPO ([1]; longitudinal dataset, baseline HbA1C 7-8% (7.47%), first 3 months): 7.01% | magnitude of HbA1C decline ([1]; longitudinal dataset, baseline HbA1C 7-8% (7.47%)): 0.46% | further HbA1C change ([1]; longitudinal dataset, baseline HbA1C 7-8%, next 3 months): no significant further change | HbA1C level after EPO ([1]; longitudinal dataset, baseline HbA1C >8 (9.41%), first 3 months): 8.46% | magnitude of HbA1C decline ([1]; longitudinal dataset, baseline HbA1C >8 (9.41%)): 0.95% | further HbA1C change ([1]; longitudinal dataset, baseline HbA1C >8, next 3 month period): no further decline | fasting blood glucose after EPO ([1]; longitudinal patients, baseline FBG>126 mg/dL (173 mg/dL)): 145 mg/dL | decline in fasting blood glucose, average ([1]; longitudinal patients, baseline FBG>126 mg/dL (173 mg/dL), entire time course): 28 mg/dL | decline in FBG level ([1]; longitudinal patients, baseline under 126 mg/dL): do not show any decline | increase in FBG at the end of the time course [1, 17]: 5 mg/dL | fasting blood glucose after EPO [1, 17]: 107 mg/dL | HbA1C level drop, average ([1]; patients with baseline HbA1C above 6.0, first month after EPO administration): 0.5% | decrease in fasting blood glucose concentration ([1]; patients with baseline HbA1C above 6.0, maximum decline over a 4 month period): approximately 30 mg.dL | improvement in hemoglobin ([1]; patients, clinical data): < 1% | Hemoglobin level ([1]; patients, over a 3 month period after initial EPO administration, then plateau): increases steadily | blood triglyceride, total cholesterol and LDL levels [2]: concomitant improvement | insulin resistance [2]: improve insulin resistance | hemoglobin [3]: not significantly elevated | reticulocytes [3]: significantly increased in a dose dependent manner | fasting blood glucose [4]: no statistically significant reduction | time to peak serum levels ([5]; subcutaneous administration): 5 to 24 h | time detectable plasma levels are maintained ([5]; within the therapeutic dose range): at least 24 hours | glucose tolerance (IPGTT) ([6]; 0.03 mg/kg i.v.): modest improvement | glucose tolerance (IPGTT) ([6]; 0.3 mg/kg i.v.): modest improvement

EMP-Hinge core mimetibody: V-EMP-1-linker-hinge core-CH2-CH3 construct of IgG1 or IgG4 subclass, SEQ ID NOS: 82-89 (QIQGGTYSCHFGPLTWVCKPQGG; cysteine pairing not given here; also: fused via linker to hinge core-CH2-CH3 of IgG1 or IgG4)
approximate half-life relative to rHuEPO [7]: at least several times that of rHuEPO | complement lysis [8]: does not mediate complement lysis | duration of response compared to rHuEPO [9]: prolonged | maximal response (hematocrit) compared to rHuEPO [9]: higher maximal response | duration of response compared to rHuEPO [9, 18]: maintained for a longer period | maximal response (hematocrit) compared to rHuEPO [9, 18]: significantly higher maximal hematocrit | potency on a molar basis, fold greater than the EMP-1 peptide [10, 19]: 500 fold | potency on a molar basis, fold less than rHuEPO [10, 19]: 5 fold | potency on a molar basis, fold greater than the EMP-1 peptide ([10]; UT-7/EPO cells, viability 48 hours after treatment, listed as EMP-hinge core mimetibody): more than 500 fold | activity compared with rHuEPO [10]: in the range of rHuEPO | activity compared with rHuEPO [10, 18]: substantially similar to recombinant HuEPO

CERA: Roche's pegylated epoetin
half-life compared with epoetin / EPO [11]: longer half life

EMP-1: 20 amino acid peptide with no sequence homology to HuEPO that activates the EPO receptor as a dimer (GGTYSCHFGPLTWVCKPQGG)
competition with 125I-labeled EPO for binding to the EPO receptor [12]: competes | ex-vivo half-life [13]: 8 h
